Experiments:
Conditions in all cases: tested as the 125I-labelled form
[1] = biological target: T1, Alpha-1,6-mannosylglycoprotein 6-beta-N-acetylglucosaminyltransferase A (Rattus norvegicus) (UniProt Q08834); assay: Activity at Wistar rat brain GnT-V assessed per mg of protein after 4 hrs by radio HPLC analysis
T1 sequence (whole entry): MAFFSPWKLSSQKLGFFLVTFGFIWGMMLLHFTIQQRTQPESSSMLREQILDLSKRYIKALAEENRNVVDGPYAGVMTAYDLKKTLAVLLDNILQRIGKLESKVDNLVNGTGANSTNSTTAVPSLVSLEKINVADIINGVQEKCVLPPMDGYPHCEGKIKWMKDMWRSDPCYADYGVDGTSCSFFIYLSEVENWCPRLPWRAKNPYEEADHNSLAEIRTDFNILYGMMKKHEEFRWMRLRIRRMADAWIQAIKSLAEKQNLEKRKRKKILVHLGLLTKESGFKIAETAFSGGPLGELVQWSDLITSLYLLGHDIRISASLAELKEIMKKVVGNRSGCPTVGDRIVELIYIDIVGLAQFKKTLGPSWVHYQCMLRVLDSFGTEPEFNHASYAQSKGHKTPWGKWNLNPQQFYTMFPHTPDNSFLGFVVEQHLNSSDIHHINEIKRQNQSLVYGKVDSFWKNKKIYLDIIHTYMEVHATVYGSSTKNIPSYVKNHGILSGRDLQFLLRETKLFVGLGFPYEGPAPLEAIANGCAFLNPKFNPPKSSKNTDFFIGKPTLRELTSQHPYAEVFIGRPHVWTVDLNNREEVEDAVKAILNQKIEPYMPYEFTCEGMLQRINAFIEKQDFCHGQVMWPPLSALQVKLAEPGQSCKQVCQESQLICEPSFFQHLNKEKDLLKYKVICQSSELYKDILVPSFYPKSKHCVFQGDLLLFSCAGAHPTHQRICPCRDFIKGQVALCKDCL

[2] = biological target: T1, Alpha-1,6-mannosylglycoprotein 6-beta-N-acetylglucosaminyltransferase A (Rattus norvegicus); assay: Activity at Wistar rat stomach GnT-V assessed per mg of protein after 4 hrs by radio HPLC analysis
[3] = biological target: T1, Alpha-1,6-mannosylglycoprotein 6-beta-N-acetylglucosaminyltransferase A (Rattus norvegicus); assay: Activity at Wistar rat liver GnT-V assessed per mg of protein after 4 hrs by radio HPLC analysis
[4] = biological target: T1, Alpha-1,6-mannosylglycoprotein 6-beta-N-acetylglucosaminyltransferase A (Rattus norvegicus); assay: Activity at Wistar rat intestine GnT-V assessed per mg of protein after 4 hrs by radio HPLC analysis
[5] = biological target: T1, Alpha-1,6-mannosylglycoprotein 6-beta-N-acetylglucosaminyltransferase A (Rattus norvegicus); assay: Activity at Wistar rat serum GnT-V assessed per mg of protein after 4 hrs by radio HPLC analysis
[6] = biological target: T1, Alpha-1,6-mannosylglycoprotein 6-beta-N-acetylglucosaminyltransferase A (Rattus norvegicus); assay: Activity at Wistar rat spleen GnT-V assessed per mg of protein after 4 hrs by radio HPLC analysis
[7] = biological target: T1, Alpha-1,6-mannosylglycoprotein 6-beta-N-acetylglucosaminyltransferase A (Rattus norvegicus); assay: Activity at Wistar rat kidney GnT-V assessed per mg of protein after 4 hrs by radio HPLC analysis
[8] = biological target: T1, Alpha-1,6-mannosylglycoprotein 6-beta-N-acetylglucosaminyltransferase A (Rattus norvegicus); assay: Activity at Wistar rat lung GnT-V assessed per mg of protein after 4 hrs by radio HPLC analysis
[9] = biological target: T1, Alpha-1,6-mannosylglycoprotein 6-beta-N-acetylglucosaminyltransferase A (Rattus norvegicus); assay: Activity at Wistar rat heart GnT-V assessed per mg of protein after 4 hrs by radio HPLC analysis

With `CC(=O)N[C@H]1[C@H](O[C@@H]2[C@@H](OC[C@H]3O[C@@H](OCCc4ccc(I)cc4)[C@H](O)[C@@H](O)[C@@H]3O)O[C@H](CO)[C@@H](O)[C@@H]2O)O[C@H](CO)[C@@H](O)[C@@H]1O` the Activity [1] was 261 pmol/h, the Activity [2] was 116 pmol/h and the Activity [3] was 48 pmol/h. It also gave an Activity [4] of 774 pmol/h, an Activity [5] of 1280 pmol/h and an Activity [6] of 244 pmol/h. It also gave an Activity [7] of 671 pmol/h, an Activity [8] of 179 pmol/h and an Activity [9] of 31 pmol/h.
